According to publication PMC11879040, “Advancing systemic toxicity risk assessment: Evaluation of a NAM-based toolbox approach” (Toxicological Sciences, 2024):
pIC50: −log10 of the molar value. Where a name gives a salt, the structure may show the parent alone. Read-outs that look alike come from different tables or passages of the source.

Experiments:
[1] = cited from earlier work
rat = conditions: rat, cited from earlier work
[2] = tested on: Gamma-aminobutyric acid receptor subunit alpha-1 BZD site, GABRA1A (r); format: binding, rat; conditions: control diazepam
[3] = biological target: T1, Adenosine receptor A2a, ADORA2A (h) (Homo sapiens, UniProt P29274); test: IPP ADORA2A binding (agonist radioligand); conditions: control NECA
T1 construct: purchased Eurofins Cerep (SafetyScreen44-based IPP panel)
T1 sequence (P29274 whole entry): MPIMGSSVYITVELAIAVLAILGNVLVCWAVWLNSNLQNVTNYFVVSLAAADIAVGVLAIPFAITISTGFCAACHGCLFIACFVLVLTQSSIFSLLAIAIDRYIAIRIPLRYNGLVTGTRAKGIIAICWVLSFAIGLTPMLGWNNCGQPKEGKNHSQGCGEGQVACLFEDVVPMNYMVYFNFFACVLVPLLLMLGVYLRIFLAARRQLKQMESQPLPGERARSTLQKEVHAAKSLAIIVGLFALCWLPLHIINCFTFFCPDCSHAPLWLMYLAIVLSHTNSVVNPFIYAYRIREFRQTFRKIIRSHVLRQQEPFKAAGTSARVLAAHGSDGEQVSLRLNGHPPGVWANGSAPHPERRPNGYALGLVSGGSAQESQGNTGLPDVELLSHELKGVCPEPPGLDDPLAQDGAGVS

Tubulin (r) = test: IPP Tubulin binding; design: species or system rat
[4] = hepatic intrinsic clearance (Clint); conditions: PBK level L3; optimised against clinical data; per chemical [8],[9],[14],[16],[22],[24],[25],[29],[30],[32]
[5] = tested on: Thyroid hormone receptor alpha, THRA (h); test: IPP THRA coactivator recruitment (agonist); format: biochemical, human; conditions: agonist, T3
[6] = tested on: Sodium channel protein type 5 subunit alpha (site 2), SCN5A (r); format: binding, rat
[7] = tested on: Glutamate receptor ionotropic NMDA 1 non-selective, GRIN1 (r)
[8] = tested on: Potassium Voltage-Gated Channel Kv non-selective, KCNQ1 (r); test: IPP KCNQ1 binding (antagonist radioligand); design: species or system rat
[9] = tested on: 63 targets with known safety liabilities; test: In vitro pharmacological profiling (IPP) panel, screening at 10 or 100 µM and dose response, minimum IC50/AC50; format: biochemical; conditions: read-out: ipp_lowest_ac50_systemic PoD
HepG2 cells [10] = test: High-throughput transcriptomics (HTTr, TempO-Seq), HepG2, 24 h; format: cell-based, human; conditions: HepG2; for pod_httr_bifrost PoD: HTTr BIFROST PoD; for podl_path_minbmd PoD: HTTr minimum pathway BMD(L)
Description: (§1) HepG2, HepaRG, and MCF7 cells were treated with each compound for 24 h across a dose range of 7 concentrations and lysed using TempO-Seq lysis buffer (BioSpyder Technologies, proprietary kit, see [Middleton et al. 2022] for method details). Sequencing was performed using TempO-Seq (BioClavis) version 2 of the human whole transcriptome panel and analyzed as described previously in Middleton et al.

[11] = biological target: Voltage-dependent L-type Ca2+ channel (dihydropyridine site), CACNA1C (r) (Rattus norvegicus, UniProt P22002); format: binding
Chain of Voltage-dependent L-type Ca2+ channel (dihydropyridine site), CACNA1C (r) (P22002 whole entry): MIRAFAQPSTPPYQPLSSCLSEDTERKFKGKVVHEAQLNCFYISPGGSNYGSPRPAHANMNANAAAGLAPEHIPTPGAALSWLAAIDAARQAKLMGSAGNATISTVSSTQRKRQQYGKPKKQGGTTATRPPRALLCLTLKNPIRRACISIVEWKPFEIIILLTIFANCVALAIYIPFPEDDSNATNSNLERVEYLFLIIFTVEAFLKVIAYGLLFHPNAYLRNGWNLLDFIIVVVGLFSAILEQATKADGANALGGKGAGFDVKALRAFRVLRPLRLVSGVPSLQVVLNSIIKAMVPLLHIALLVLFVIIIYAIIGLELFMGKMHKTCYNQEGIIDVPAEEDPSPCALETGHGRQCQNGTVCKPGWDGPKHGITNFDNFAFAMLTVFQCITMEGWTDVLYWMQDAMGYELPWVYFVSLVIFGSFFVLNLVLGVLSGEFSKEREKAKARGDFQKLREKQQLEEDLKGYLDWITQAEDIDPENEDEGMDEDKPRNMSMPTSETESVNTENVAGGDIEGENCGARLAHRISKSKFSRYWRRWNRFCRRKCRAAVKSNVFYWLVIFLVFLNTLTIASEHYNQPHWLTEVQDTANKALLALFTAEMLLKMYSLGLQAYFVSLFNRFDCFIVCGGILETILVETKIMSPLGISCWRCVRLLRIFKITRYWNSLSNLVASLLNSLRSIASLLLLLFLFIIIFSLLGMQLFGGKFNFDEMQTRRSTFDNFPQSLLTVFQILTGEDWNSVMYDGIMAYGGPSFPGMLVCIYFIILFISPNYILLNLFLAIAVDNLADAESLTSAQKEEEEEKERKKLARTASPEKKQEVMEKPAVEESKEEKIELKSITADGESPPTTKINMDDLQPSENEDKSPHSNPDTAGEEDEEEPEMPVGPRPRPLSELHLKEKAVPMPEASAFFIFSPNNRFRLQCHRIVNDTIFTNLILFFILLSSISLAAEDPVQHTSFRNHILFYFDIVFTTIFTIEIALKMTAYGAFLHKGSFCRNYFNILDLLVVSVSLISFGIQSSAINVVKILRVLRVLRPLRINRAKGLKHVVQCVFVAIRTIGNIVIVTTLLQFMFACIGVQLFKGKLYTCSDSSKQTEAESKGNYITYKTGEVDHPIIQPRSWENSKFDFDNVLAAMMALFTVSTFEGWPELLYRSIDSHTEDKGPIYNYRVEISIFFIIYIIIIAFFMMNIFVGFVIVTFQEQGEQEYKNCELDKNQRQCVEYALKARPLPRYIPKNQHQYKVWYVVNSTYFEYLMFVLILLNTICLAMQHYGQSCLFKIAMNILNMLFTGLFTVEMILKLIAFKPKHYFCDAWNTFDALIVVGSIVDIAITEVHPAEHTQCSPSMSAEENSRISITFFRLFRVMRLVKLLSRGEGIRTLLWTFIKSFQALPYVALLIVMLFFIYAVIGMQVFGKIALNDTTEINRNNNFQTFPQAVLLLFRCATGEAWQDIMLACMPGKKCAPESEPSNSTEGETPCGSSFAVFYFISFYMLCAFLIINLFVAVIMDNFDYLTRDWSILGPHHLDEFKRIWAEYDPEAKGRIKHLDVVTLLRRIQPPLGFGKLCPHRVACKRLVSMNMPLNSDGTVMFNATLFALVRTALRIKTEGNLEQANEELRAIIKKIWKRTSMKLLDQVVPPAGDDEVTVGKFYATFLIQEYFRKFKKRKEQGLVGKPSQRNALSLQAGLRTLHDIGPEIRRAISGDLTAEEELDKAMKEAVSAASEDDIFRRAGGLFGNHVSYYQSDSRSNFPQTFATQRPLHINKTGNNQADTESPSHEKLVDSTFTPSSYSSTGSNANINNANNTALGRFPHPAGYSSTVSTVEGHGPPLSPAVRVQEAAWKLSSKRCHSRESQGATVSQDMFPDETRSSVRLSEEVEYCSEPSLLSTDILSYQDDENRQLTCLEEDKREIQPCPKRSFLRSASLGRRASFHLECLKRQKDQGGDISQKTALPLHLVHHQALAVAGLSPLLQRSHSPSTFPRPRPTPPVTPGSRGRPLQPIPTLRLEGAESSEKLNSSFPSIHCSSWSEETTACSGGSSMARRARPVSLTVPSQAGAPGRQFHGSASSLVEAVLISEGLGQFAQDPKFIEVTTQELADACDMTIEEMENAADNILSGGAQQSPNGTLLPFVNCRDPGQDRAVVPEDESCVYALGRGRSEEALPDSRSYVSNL

HepG2 cells [12] = test: Cell stress panel (CSP), 24 h, 8 concentrations, BIFROST global PoD; format: cell-based; conditions: HepG2; cell stress panel PoD
Description: Compounds were tested using the previously developed cell stress panel ([Hatherell et al. 2020]) and the expanded biomarker panel outlined in Middleton et al. HepG2 cells were treated with all compounds for 24 h across 8 concentrations prior to biomarker analysis. The same plate layout and number of replicates (3 biological and 2 technical) were used as previously for each assay within the panel.

MCF7 cells = test: High-throughput transcriptomics (HTTr, TempO-Seq), MCF7, 24 h; format: cell-based, human; conditions: MCF-7; for pod_httr_bifrost PoD: HTTr BIFROST PoD; for podl_path_minbmd PoD: HTTr minimum pathway BMD(L)
Description: as §1

[13] = Assignment of risk classifications to benchmark chemical-exposure scenarios; conditions: for risk: Oral, Therapeutic, Tablet, from table S1
HepaRG cells = test: High-throughput transcriptomics (HTTr, TempO-Seq), HepaRG, 24 h; format: cell-based, human; conditions: HepaRG; for pod_httr_bifrost PoD: HTTr BIFROST PoD; for podl_path_minbmd PoD: HTTr minimum pathway BMD(L)
Description: as §1

[14] = PBK level L2; taken or scaled from references (median where several); ref [6],[7],[10],[19]; cited from earlier work
[15] = single value or median, ref [2],[4],[6],[7],[8],[10],[11],[15],[18],[27],[34], cited from earlier work
[16] = biological target: Potassium voltage-gated channel subfamily H member 2 hERG, KCNH2 (h) (Homo sapiens, UniProt Q12809); conditions: human
Chain of Potassium voltage-gated channel subfamily H member 2 hERG, KCNH2 (h) (Q12809 whole entry): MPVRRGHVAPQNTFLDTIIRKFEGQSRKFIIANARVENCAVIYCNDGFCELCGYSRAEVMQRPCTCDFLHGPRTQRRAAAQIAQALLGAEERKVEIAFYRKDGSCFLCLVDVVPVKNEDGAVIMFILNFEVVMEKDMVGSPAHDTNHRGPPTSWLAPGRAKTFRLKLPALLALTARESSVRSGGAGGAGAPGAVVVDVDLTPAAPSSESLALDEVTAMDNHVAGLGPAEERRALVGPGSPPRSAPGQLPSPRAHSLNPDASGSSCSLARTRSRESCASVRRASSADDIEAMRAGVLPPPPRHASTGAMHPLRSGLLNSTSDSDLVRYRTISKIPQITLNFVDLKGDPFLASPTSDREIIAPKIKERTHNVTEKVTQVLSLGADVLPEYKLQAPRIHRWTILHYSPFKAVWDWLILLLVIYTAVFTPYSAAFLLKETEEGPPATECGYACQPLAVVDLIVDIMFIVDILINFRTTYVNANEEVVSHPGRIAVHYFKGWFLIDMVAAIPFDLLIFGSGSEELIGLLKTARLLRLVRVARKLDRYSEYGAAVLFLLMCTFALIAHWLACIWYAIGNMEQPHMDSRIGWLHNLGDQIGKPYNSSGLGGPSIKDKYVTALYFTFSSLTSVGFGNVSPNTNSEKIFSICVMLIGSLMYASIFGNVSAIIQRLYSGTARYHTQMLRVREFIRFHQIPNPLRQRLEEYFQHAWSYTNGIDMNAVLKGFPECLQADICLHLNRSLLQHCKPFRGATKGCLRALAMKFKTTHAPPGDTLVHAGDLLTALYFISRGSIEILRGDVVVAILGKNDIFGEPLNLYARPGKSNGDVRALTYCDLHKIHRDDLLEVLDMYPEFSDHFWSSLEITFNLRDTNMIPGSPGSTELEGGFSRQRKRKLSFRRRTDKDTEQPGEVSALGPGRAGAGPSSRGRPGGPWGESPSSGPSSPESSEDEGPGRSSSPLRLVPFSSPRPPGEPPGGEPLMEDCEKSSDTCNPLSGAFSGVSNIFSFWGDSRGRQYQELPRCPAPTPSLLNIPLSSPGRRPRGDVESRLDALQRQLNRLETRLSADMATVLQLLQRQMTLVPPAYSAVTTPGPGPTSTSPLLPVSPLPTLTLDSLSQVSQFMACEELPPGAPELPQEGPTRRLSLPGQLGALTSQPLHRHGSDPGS

[17] = PBK model plasma Cmax estimate (Gastroplus 9.8; levels L1, L2, L3); design: species or system human
[18] = per chemical see Peff Reference, cited from earlier work
[19] = human
[20] = biological target: 5-hydroxytryptamine receptor 2B, HTR2B (h) (Homo sapiens, UniProt P41595)
Chain of 5-hydroxytryptamine receptor 2B, HTR2B (h) (P41595 whole entry): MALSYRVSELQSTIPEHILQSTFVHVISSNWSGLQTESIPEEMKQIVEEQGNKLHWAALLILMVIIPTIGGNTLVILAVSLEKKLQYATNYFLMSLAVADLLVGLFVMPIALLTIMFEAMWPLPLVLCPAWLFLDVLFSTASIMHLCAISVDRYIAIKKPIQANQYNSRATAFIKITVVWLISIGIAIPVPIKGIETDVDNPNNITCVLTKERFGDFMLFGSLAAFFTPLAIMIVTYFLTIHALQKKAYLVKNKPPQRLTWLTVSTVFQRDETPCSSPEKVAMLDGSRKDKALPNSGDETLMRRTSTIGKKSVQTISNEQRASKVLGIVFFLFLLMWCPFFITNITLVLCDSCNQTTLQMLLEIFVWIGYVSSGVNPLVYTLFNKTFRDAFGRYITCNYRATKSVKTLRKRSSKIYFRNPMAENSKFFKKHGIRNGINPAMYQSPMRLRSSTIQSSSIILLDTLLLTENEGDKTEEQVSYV

[21] = biological target: Tyrosine-protein kinase Lck, LCK (h) (Homo sapiens, UniProt P06239); test: IPP LCK enzymatic activity; format: biochemical; conditions: Enzymatic activity; control staurosporine; read-out: IPP Dose Response PoD: LCK
Chain of Tyrosine-protein kinase Lck, LCK (h) (P06239 whole entry): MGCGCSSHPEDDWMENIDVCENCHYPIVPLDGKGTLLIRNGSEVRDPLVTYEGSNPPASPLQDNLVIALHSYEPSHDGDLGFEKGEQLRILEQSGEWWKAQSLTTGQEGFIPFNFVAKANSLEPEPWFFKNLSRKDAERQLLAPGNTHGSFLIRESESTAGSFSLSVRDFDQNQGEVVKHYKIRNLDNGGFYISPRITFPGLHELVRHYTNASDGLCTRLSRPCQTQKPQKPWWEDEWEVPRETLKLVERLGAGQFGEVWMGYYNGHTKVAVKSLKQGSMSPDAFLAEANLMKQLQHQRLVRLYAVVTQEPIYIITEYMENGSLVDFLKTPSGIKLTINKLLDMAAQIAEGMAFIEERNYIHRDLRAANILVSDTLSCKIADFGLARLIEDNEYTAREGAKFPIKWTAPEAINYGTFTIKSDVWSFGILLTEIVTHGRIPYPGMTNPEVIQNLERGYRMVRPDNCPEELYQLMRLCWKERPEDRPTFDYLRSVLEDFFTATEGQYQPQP

[22] = IV bolus 4 mg, patients hospitalized with community-acquired pneumonia, calibration, ref Spoorenberg et al. 2014
[23] = Oral tablet 6 mg, fasted, 6 female healthy Asian, validation, ref Jobe et al. 2020
[24] = Oral tablet 6 mg, fasted, patients hospitalized with community-acquired pneumonia, validation, ref Spoorenberg et al. 2014
[25] = 100 uM, * denotes assay interference (2-Amino-6-chloro-4-nitrophenol, HC Red 3)
[26] = 10 uM, ligand/control Colchicine
[27] = IPP screening at 10 uM, control CGS 19755

C[C@@H]1C[C@H]2[C@@H]3CCC4=CC(=O)C=C[C@]4(C)[C@@]3(F)[C@@H](O)C[C@]2(C)[C@@]1(O)C(=O)CO [Dexamethasone, 9-Fluoro-11beta,17,21-trihydroxy-16alpha-methylpregna-1,4-diene-3,20-dione]
Reported AUC0-t [1, 22]: 507.3 ng·h/mL
Reported cmax [1, 22]: 0.0964 µg/mL
Reported tmax [1, 22]: 0 h
Reported AUC0-t [1, 23]: 689.3 ng·h/mL
Reported cmax [1, 23]: 0.0822 µg/mL
Reported tmax [1, 23]: 1.53 h
Reported AUC0-t [1, 24]: 746.6 ng·h/mL
Reported cmax [1, 24]: 0.0643 µg/mL
Reported tmax [1, 24]: 1.4 h
PoD (NOAEL) (rat; endocrine toxicity study, ref ECFA ADI): 0.001 mg/kg bw/day
Specific binding ([2]; IPP screening at 100 uM): 27.9%
Specific binding ([3]; IPP screening at 100 uM): -9.1%
IPP screening %, Specific binding (Tubulin (r); 100 uM, ligand/control Colchicine): -8.0%
Intrinsic Liver Clearance [4]: 23.37 L/h
IPP screening %, Coactivator recruitment [5, 25]: 3.0%
Specific binding [6]: 11.2%
Specific binding ([7]; IPP screening at 100 uM, control CGS 19755): 10.7%
Specific binding ([8]; IPP screening at 100 uM, control α-dendrotoxin): -4.1%
AC50 ([9]; lowest AC50 across IPP panel (systemic targets), cell_type -): 3.15 nM
pod_httr_bifrost PoD (HepG2 cells [10]): 0.0003269 µM
podl_path_minbmd PoD (HepG2 cells [10]): 69.6957 µM
Specific binding [11]: -36.4%
pod_cell_stress PoD (HepG2 cells [12]): 14.5194 µM
pod_httr_bifrost PoD (MCF7 cells): 9.79e-05 µM
podl_path_minbmd PoD (MCF7 cells): 6.367 µM
Risk Classification ([13]; Oral tablet 0.5 mg/day): High risk
Risk Classification ([13]; Oral tablet 10 mg/day): High risk
risk ([13]; 0.5mg/day, Exp3): 1
risk ([13]; 10mg/day, Exp4): 1
pod_httr_bifrost PoD (HepaRG cells): 3.5452 µM
podl_path_minbmd PoD (HepaRG cells): 74.2662 µM
Intrinsic Liver Clearance [14]: 107.8 L/h
Fup ([15]; PBK level L2): 26.3%
Fup ([15]; PBK level L3): 26.3%

C[C@H]1O[C@@H](O[C@H]2[C@@H](O)C[C@H](O[C@H]3[C@@H](O)C[C@H](O[C@H]4CC[C@@]5(C)[C@H](CC[C@@H]6[C@@H]5C[C@@H](O)[C@]5(C)[C@@H](C7=CC(=O)OC7)CC[C@]65O)C4)O[C@@H]3C)O[C@@H]2C)C[C@H](O)[C@@H]1O [Digoxin, 3beta-{[2,6-Dideoxy-beta-D-ribo-hexopyranosyl-(1->4)-2,6-dideoxy-beta-D-ribo-hexopyranosyl-(1->4)-2,6-dideoxy-beta-D-ribo-hexopyranosyl]oxy}-12beta,14-dihydroxy-5beta-card-20(22)-enolide]
IPP screening %, Specific binding [16]: -6.2%
Specific binding ([2]; IPP screening at 10 uM): 11.3%
Specific binding ([3]; IPP screening at 10 uM): 26.2%
IPP screening %, Specific binding (Tubulin (r); [26]): -7.0%
IPP screening %, Coactivator recruitment ([5]; 10 uM): 1.0%
Specific binding [6]: 19.6%
Specific binding [7, 27]: -2.6%
Specific binding [8]: -2.7%
pod_httr_bifrost PoD (HepG2 cells [10]): 0.007046 µM
podl_path_minbmd PoD (HepG2 cells [10]): 0.02695 µM
Specific binding [11]: 0.7%
pod_cell_stress PoD (HepG2 cells [12]): 0.0001773 µM
L2 Cmax estimate underprediction of the L3 plasma Cmax ([17]; largest of any underprediction, printed with ∼): 30- to 50 fold
underprediction of the L3 result at L2 (Cmax) ([17]; therapeutic uses): ≥ 5 fold
pod_httr_bifrost PoD (MCF7 cells): 0.003833 µM
podl_path_minbmd PoD (MCF7 cells): 0.02134 µM
pod_httr_bifrost PoD (HepaRG cells): 0.01449 µM
podl_path_minbmd PoD (HepaRG cells): 0.04151 µM

NS(=O)(=O)c1cc(C(=O)O)c(NCc2ccco2)cc1Cl [Furosemide, 4-Chloro-2-{[(furan-2-yl)methyl]amino}-5-sulfamoylbenzoic acid]
PoD (NOEL) (rat; chronic, ref NTP study): 46.9 mg/kg bw/day
Specific binding ([3]; IPP screening at 100 uM): 15.2%
IPP screening %, Specific binding (Tubulin (r)): -4.0%
IPP screening %, Coactivator recruitment [5, 25]: -1.0%
Specific binding [7]: 5.8%
AC50 [9]: 1380 nM
pod_httr_bifrost PoD (HepG2 cells [10]): 3.253 µM
podl_path_minbmd PoD (HepG2 cells [10]): 177.032 µM
Peff ([18]; PBK level L2, ref [3],[4],[11]): 0.41 cm/s x E-04
Peff ([18]; PBK level L3, ref [4],[11]): 0.41 cm/s x E-04
pod_cell_stress PoD (HepG2 cells [12]): 2.832 µM
pod_httr_bifrost PoD (MCF7 cells): 72.7631 µM
podl_path_minbmd PoD (MCF7 cells): 520.886 µM
risk [19]: 1
pod_httr_bifrost PoD (HepaRG cells): 0.2929 µM
podl_path_minbmd PoD (HepaRG cells): 1.613 µM

COc1ccc(CCN(C)CCCC(C#N)(c2ccc(OC)c(OC)c2)C(C)C)cc1OC (centres unmarked) [Verapamil Hydrochloride, 2-(3,4-Dimethoxyphenyl)-5-{[2-(3,4-dimethoxyphenyl)ethyl](methyl)amino}-2-(propan-2-yl)pentanenitrile--hydrogen chloride (1/1)]
Specific binding ([2]; IPP screening at 10 uM): -6.7%
leading IPP PoD (target) [20]: antagonism of the serotonin 2B receptor
IPP screening %, Specific binding (Tubulin (r); [26]): 13.0%
pIC50 [21]: < 4.45
IPP screening %, Coactivator recruitment ([5]; 10 uM): 1.0%
Specific binding [6]: 74.6%
Specific binding [7, 27]: 2.5%
Specific binding [8]: 4.7%
pod_cell_stress PoD (HepG2 cells [12]): 0.6383 µM
